In paper PMC11345841, “Exploring 2-Sulfonylpyrimidine Warheads as Acrylamide Surrogates for Targeted Covalent Inhibition: A BTK Story” (Journal of Medicinal Chemistry, 2024):
Read-outs that look alike come from different tables or passages of the source.

Experiments:
Assay in all cases: KINOMEscan ScanTK
Type in all cases: binding
[1] = test system: FLT3(ITD)
[2] = biological target: T1, ABL1(E255K)-phosphorylated (Homo sapiens, UniProt P00519, E255K)
T1 construct: purchased Eurofins DiscoverX KINOMEscan (scanTK)

[3] = biological target: T2, VEGFR2 (Homo sapiens, UniProt P35968)
T2 construct: purchased Eurofins DiscoverX KINOMEscan (scanTK)

[4] = biological target: T3, INSR (Homo sapiens, UniProt P06213)
T3 construct: purchased Eurofins DiscoverX KINOMEscan (scanTK)
T3 sequence (P06213 28-1382): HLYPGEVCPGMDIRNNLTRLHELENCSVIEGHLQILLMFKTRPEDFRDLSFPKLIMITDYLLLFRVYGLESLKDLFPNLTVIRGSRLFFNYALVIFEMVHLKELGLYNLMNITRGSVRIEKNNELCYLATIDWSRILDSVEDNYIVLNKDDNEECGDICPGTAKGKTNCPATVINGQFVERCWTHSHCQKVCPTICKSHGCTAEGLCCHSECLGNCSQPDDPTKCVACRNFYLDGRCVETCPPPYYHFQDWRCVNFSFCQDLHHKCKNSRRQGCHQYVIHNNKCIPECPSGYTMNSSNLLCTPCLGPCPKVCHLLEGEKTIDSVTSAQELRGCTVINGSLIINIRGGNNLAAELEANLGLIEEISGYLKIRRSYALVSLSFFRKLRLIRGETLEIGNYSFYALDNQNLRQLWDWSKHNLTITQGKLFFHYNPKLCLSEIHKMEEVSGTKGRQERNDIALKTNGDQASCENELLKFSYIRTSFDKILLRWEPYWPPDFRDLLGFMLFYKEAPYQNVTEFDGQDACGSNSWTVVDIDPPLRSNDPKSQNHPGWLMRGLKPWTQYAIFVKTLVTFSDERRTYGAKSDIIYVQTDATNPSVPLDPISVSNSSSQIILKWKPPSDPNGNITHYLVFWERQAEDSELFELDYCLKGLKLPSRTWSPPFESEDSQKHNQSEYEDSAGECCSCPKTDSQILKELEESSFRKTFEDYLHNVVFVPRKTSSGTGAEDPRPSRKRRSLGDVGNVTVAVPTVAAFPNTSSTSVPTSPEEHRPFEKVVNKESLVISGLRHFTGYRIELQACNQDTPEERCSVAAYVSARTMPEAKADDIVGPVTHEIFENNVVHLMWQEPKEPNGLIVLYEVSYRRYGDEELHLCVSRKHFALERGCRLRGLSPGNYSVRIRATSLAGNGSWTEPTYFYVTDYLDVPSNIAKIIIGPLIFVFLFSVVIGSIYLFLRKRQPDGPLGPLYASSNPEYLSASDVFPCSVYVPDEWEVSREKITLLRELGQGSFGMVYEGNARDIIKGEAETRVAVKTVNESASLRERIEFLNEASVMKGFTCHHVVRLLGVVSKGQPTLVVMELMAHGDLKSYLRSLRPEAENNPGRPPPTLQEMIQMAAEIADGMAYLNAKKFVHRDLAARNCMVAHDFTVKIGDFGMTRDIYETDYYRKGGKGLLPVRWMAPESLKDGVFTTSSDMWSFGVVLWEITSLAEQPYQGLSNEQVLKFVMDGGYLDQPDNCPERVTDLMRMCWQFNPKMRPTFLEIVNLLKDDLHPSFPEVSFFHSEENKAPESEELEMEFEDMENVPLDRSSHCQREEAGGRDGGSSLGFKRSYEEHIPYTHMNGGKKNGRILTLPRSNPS

[5] = biological target: T4, KIT(L576P) (Homo sapiens, UniProt P10721, L576P)
T4 construct: purchased Eurofins DiscoverX KINOMEscan (scanTK)

[6] = biological target: T5, EPHA2 (Homo sapiens, UniProt P29317)
T5 construct: purchased Eurofins DiscoverX KINOMEscan (scanTK)

[7] = test system: FLT3(ITD,F691L)
[8] = biological target: T6, RET(M918T) (Homo sapiens, UniProt P07949, M918T)
T6 construct: purchased Eurofins DiscoverX KINOMEscan (scanTK)
T6 sequence (P07949 29-1114 M918T): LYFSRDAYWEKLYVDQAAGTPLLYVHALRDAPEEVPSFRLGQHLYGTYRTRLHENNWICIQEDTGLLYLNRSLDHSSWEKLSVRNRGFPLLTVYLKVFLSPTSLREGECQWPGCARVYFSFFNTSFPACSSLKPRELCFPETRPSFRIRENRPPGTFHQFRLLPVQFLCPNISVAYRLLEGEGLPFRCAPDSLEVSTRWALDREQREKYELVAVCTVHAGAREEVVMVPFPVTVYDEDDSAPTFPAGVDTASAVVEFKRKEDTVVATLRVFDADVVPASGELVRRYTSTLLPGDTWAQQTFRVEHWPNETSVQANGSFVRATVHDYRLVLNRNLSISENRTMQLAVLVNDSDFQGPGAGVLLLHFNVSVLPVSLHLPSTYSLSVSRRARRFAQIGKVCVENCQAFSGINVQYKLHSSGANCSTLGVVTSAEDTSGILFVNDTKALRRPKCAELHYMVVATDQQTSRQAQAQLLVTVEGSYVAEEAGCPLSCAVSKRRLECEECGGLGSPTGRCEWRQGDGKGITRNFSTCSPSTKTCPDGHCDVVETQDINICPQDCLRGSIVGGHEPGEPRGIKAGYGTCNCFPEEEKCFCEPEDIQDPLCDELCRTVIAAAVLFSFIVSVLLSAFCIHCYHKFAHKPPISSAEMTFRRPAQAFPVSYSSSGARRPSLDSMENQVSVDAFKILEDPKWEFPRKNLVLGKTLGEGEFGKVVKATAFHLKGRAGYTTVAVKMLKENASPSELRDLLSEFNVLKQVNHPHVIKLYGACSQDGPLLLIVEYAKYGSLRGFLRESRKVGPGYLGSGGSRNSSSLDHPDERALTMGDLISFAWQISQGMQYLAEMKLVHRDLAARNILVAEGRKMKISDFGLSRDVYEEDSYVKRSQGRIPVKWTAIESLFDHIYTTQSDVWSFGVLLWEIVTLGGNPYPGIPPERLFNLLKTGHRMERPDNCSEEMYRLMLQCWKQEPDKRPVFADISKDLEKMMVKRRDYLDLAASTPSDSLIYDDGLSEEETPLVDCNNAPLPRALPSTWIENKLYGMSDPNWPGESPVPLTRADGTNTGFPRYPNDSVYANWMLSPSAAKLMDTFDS

[9] = biological target: T7, YES (Homo sapiens, UniProt P07947)
T7 construct: purchased Eurofins DiscoverX KINOMEscan (scanTK)

[10] = biological target: T8, EPHB6 (Homo sapiens, UniProt O15197)
T8 construct: purchased Eurofins DiscoverX KINOMEscan (scanTK)
T8 sequence (O15197 32-1021): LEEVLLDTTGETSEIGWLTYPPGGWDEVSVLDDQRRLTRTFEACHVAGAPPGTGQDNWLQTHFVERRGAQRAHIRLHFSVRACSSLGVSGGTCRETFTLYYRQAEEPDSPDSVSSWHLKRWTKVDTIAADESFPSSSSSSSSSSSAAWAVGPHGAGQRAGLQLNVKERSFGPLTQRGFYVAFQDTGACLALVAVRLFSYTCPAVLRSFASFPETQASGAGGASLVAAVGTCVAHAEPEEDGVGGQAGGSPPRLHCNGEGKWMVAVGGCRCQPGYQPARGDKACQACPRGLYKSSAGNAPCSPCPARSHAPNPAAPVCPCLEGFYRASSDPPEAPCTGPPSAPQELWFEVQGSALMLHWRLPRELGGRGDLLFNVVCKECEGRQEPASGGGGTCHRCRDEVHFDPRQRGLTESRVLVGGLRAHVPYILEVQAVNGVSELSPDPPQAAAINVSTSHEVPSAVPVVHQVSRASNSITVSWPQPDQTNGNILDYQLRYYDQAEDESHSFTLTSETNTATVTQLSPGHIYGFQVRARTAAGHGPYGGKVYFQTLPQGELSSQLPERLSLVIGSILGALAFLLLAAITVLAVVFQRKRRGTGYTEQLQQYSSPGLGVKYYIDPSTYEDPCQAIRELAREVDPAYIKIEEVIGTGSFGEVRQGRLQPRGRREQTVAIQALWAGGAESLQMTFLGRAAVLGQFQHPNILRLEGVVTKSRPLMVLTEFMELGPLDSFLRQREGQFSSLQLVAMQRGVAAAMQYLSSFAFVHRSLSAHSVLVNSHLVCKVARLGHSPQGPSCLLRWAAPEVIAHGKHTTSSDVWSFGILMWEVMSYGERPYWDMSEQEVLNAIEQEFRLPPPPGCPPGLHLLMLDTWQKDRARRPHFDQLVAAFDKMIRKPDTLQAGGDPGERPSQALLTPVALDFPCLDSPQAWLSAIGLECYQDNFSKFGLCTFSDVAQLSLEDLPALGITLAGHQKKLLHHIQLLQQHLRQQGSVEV

[11] = biological target: T9, ABL1(Y253F)-phosphorylated (Homo sapiens, UniProt P00519, Y253F)
T9 construct: purchased Eurofins DiscoverX KINOMEscan (scanTK)

[12] = biological target: T10, FYN (Homo sapiens, UniProt P06241)
T10 construct: purchased Eurofins DiscoverX KINOMEscan (scanTK)
T10 sequence (P06241 whole entry): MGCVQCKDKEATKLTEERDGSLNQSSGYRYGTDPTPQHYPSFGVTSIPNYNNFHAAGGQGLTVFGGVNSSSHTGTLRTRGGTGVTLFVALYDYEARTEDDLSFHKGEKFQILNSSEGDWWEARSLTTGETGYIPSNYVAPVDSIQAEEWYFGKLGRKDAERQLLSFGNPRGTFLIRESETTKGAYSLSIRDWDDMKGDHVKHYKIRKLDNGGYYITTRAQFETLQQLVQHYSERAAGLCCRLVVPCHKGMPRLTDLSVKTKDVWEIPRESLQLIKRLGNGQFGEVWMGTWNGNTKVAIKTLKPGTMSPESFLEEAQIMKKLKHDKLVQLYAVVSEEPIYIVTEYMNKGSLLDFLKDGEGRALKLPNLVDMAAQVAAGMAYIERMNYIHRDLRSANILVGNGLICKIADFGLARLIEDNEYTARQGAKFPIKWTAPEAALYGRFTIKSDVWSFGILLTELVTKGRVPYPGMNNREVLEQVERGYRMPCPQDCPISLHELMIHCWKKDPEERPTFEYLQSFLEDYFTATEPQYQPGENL

[13] = biological target: T11, ABL1(F317L)-nonphosphorylated (Homo sapiens, UniProt P00519, F317L)
T11 construct: purchased Eurofins DiscoverX KINOMEscan (scanTK)

[14] = biological target: T12, FGFR1 (Homo sapiens, UniProt P11362)
T12 construct: purchased Eurofins DiscoverX KINOMEscan (scanTK)
T12 sequence (P11362 22-822): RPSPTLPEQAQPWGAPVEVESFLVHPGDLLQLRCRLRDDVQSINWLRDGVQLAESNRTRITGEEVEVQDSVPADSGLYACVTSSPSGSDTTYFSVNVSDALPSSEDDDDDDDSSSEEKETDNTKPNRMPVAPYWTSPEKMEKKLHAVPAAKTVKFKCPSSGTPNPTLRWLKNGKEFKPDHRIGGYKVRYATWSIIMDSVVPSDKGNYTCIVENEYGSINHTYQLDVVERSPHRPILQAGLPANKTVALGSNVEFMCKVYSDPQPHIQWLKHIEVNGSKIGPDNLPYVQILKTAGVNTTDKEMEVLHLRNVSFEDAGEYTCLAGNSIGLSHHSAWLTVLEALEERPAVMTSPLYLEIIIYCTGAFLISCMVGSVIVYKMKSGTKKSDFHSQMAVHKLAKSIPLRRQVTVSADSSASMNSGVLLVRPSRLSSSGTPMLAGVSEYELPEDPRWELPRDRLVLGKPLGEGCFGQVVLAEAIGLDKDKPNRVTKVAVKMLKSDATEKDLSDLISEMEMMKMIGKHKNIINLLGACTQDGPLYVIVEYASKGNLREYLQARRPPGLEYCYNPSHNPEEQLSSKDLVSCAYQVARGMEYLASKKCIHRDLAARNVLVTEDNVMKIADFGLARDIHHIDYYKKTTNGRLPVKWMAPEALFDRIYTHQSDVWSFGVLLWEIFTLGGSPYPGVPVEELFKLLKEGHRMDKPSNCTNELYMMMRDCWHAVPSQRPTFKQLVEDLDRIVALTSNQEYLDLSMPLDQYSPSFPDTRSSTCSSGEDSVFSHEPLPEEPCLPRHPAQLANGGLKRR

[15] = biological target: T13, CSF1R (Homo sapiens, UniProt P07333)
T13 construct: purchased Eurofins DiscoverX KINOMEscan (scanTK)

[16] = biological target: T14, FGFR3 (Homo sapiens, UniProt P22607)
T14 construct: purchased Eurofins DiscoverX KINOMEscan (scanTK)
T14 sequence (P22607 23-806): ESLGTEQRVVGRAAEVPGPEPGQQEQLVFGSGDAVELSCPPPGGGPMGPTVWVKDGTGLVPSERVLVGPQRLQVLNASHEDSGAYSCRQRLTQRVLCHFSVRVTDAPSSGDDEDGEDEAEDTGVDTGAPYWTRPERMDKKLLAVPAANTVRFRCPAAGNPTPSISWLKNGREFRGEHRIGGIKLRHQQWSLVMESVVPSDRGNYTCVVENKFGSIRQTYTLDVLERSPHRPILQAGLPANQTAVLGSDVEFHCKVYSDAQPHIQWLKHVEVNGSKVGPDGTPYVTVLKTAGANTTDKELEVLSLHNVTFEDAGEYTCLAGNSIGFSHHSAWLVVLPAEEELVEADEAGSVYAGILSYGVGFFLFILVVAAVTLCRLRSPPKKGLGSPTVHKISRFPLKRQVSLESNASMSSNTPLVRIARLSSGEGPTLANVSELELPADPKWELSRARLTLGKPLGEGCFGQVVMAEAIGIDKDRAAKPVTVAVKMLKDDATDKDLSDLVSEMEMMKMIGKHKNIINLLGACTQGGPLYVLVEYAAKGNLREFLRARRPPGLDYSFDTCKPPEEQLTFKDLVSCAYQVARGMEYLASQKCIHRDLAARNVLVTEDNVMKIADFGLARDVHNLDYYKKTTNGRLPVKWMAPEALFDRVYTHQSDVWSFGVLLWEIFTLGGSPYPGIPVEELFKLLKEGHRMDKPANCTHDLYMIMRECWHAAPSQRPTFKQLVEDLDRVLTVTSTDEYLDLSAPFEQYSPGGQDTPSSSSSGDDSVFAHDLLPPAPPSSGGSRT

[17] = biological target: T15, KIT(D816V) (Homo sapiens, UniProt P10721, D816V)
T15 construct: purchased Eurofins DiscoverX KINOMEscan (scanTK)

[18] = biological target: T16, FAK (Homo sapiens, UniProt Q05397)
T16 construct: purchased Eurofins DiscoverX KINOMEscan (scanTK)

[19] = @1000nM, read-out: % difference (compound - Ib %Control)

## CCOC(=O)c1cnc(S(C)(=O)=O)nc1N1CCC[C@@H](n2nc(-c3ccc(Oc4ccccc4)cc3)c3c(N)ncnc32)C1 [Compound 8c, Ethyl (R)-4-(3-(4-Amino-3-(4-phenoxyphenyl)-1H-pyrazolo[3,4-d]pyrimidin-1-yl)piperidin-1-yl)-2-(methylsulfonyl)pyrimidine-5-carboxylate]
[1]
  %Control @1000nM: 100%
[1]; @1000nM
  % difference (compound - Ib %Control): 28%
  %Control: 100%
[2]; [19]
  difference in %Control from reference Ib at 1 µM: 17%
[2]; @1000nM, read-out: %Control
  remaining binding at 1 µM: 81%
[2]; read-out: %Control @1000nM
  remaining binding at 1 µM: 81%
[3]; @1000nM, read-out: %Control
  remaining binding at 1 µM: 94%
[3]; read-out: %Control @1000nM
  remaining binding at 1 µM: 94%
[4]; @1000nM
  difference in %Control versus compound Ib at 1 µM: 0%
[4]; @1000nM, read-out: %Control
  remaining binding at 1 µM: 100%
[4]; read-out: %Control @1000nM
  remaining binding at 1 µM: 100%
[5]; [19]
  difference in %Control versus Ib at 1 µM: 32%
[5]; @1000nM, read-out: %Control
  remaining binding at 1 µM: 64%
[5]; read-out: %Control @1000nM
  remaining binding at 1 µM: 64%
[6]; @1000nM
  difference in %Control versus compound Ib at 1 µM: -2%
[6]; @1000nM, read-out: %Control
  remaining binding at 1 µM: 98%
[6]; read-out: %Control @1000nM
  remaining binding at 1 µM: 98%
[7]
  %Control @1000nM: 100%
[7]; @1000nM
  % difference (compound - Ib %Control): 0%
  %Control: 100%
[8]; @1000nM, read-out: %Control
  remaining binding at 1 µM: 87%
[8]; read-out: %Control @1000nM
  remaining binding at 1 µM: 87%
[9]; @1000nM, read-out: %Control
  remaining binding at 1 µM: 25%
[9]; read-out: %Control @1000nM
  remaining binding at 1 µM: 25%
[10]; @1000nM
  difference in %Control versus compound Ib at 1 µM: 54%
[10]; @1000nM, read-out: %Control
  remaining binding at 1 µM: 72%
[10]; read-out: %Control @1000nM
  remaining binding at 1 µM: 72%
[11]; @1000nM
  difference in %Control from compound Ib at 1 µM: 4%
[11]; @1000nM, read-out: %Control
  remaining binding at 1 µM: 81%
[11]; read-out: %Control @1000nM
  remaining binding at 1 µM: 81%
[12]; @1000nM
  difference in % of control versus compound Ib at 1 µM: 30.4%
[12]; @1000nM, read-out: %Control
  remaining binding at 1 µM: 40%
[12]; read-out: %Control @1000nM
  remaining binding at 1 µM: 40%
[13]; @1000nM
  difference in % of control binding versus compound Ib at 1 µM: 58%
[13]; @1000nM, read-out: %Control
  remaining binding at 1 µM: 90%
[13]; read-out: %Control @1000nM
  remaining binding at 1 µM: 90%
[14]; @1000nM
  difference in %Control from compound Ib at 1 µM: 53%
[14]; @1000nM, read-out: %Control
  remaining binding at 1 µM: 86%
[14]; read-out: %Control @1000nM
  remaining binding at 1 µM: 86%
[15]; @1000nM
  difference in %Control versus compound Ib at 1 µM: 16%
[15]; @1000nM, read-out: %Control
  remaining binding at 1 µM: 96%
[15]; read-out: %Control @1000nM
  remaining binding at 1 µM: 96%
[16]; @1000nM
  difference in %Control versus compound Ib at 1 µM: 48%
[16]; @1000nM, read-out: %Control
  remaining binding at 1 µM: 96%
[16]; read-out: %Control @1000nM
  remaining binding at 1 µM: 96%
[17]; @1000nM, read-out: %Control
  remaining binding at 1 µM: 85%
[17]; read-out: %Control @1000nM
  remaining binding at 1 µM: 85%
[18]; @1000nM
  difference in %Control versus compound Ib at 1 µM: -4%
[18]; @1000nM, read-out: %Control
  remaining binding at 1 µM: 96%
[18]; read-out: %Control @1000nM
  remaining binding at 1 µM: 96%

## C=CC(=O)N1CCC[C@@H](n2nc(-c3ccc(Oc4ccccc4)cc3)c3c(N)ncnc32)C1 [Compound 1g, Ibrutinib, reference compound]
[1]
  %Control @1000nM: 72%
[1]; @1000nM
  %Control: 72%
[2]; @1000nM, read-out: %Control
  remaining binding at 1 µM: 64%
[2]; read-out: %Control @1000nM
  remaining binding at 1 µM: 64%
[3]; @1000nM, read-out: %Control
  remaining binding at 1 µM: 71%
[3]; read-out: %Control @1000nM
  remaining binding at 1 µM: 71%
[4]; @1000nM, read-out: %Control
  remaining binding at 1 µM: 100%
[4]; read-out: %Control @1000nM
  remaining binding at 1 µM: 100%
[5]; @1000nM, read-out: %Control
  remaining binding at 1 µM: 32%
[5]; read-out: %Control @1000nM
  remaining binding at 1 µM: 32%
[6]; @1000nM, read-out: %Control
  remaining binding at 1 µM: 100%
[6]; read-out: %Control @1000nM
  remaining binding at 1 µM: 100%
[7]
  %Control @1000nM: 100%
[7]; @1000nM
  %Control: 100%
[8]; @1000nM, read-out: %Control
  remaining binding at 1 µM: 14%
[8]; read-out: %Control @1000nM
  remaining binding at 1 µM: 14%
[10]; @1000nM, read-out: %Control
  remaining binding at 1 µM: 18%
[10]; read-out: %Control @1000nM
  remaining binding at 1 µM: 18%
[11]; @1000nM, read-out: %Control
  remaining binding at 1 µM: 77%
[11]; read-out: %Control @1000nM
  remaining binding at 1 µM: 77%
[12]; @1000nM, read-out: %Control
  remaining binding at 1 µM: 9.6%
[12]; read-out: %Control @1000nM
  remaining binding at 1 µM: 9.6%
[13]; @1000nM, read-out: %Control
  remaining binding at 1 µM: 32%
[13]; read-out: %Control @1000nM
  remaining binding at 1 µM: 32%
[14]; @1000nM, read-out: %Control
  remaining binding at 1 µM: 33%
[14]; read-out: %Control @1000nM
  remaining binding at 1 µM: 33%
[15]; @1000nM, read-out: %Control
  remaining binding at 1 µM: 80%
[15]; read-out: %Control @1000nM
  remaining binding at 1 µM: 80%
[16]; @1000nM, read-out: %Control
  remaining binding at 1 µM: 48%
[16]; read-out: %Control @1000nM
  remaining binding at 1 µM: 48%
[17]; @1000nM, read-out: %Control
  remaining binding at 1 µM: 86%
[17]; read-out: %Control @1000nM
  remaining binding at 1 µM: 86%
[18]; @1000nM, read-out: %Control
  remaining binding at 1 µM: 100%
[18]; read-out: %Control @1000nM
  remaining binding at 1 µM: 100%
